# Laboratory results from PubChem BioAssay (NCI).
#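 Protocol summary: plate cells (96-well), add compound at 5 concentrations, incubate 48 h, interpolate endpoints linearly. GI50 = concentration required for 50% inhibition of growth. The concentration for full growth arrest is given as TGI.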
# How the values were obtained:
# Test in all cases: growth of human tumour cells (NCI), 48 h
# [1] = test system: A549 NSCLC
# [2] = test system: ACHN renal
# [3] = test system: COLO 205 colon
# [4] = test system: EKVX NSCLC
# [5] = test system: HOP-92 NSCLC
# [6] = test system: K-562 leukemia
# [7] = test system: NCI-H226 lung
# [8] = test system: OVCAR-4 ovarian
# [9] = test system: SK-OV-3 ovarian
# [10] = test system: UACC-62 melanoma
Structure (SMILES),TGI [1] [µM],TGI [2] [µM],TGI [3] [µM],TGI [4] [µM],TGI [5] [µM],TGI [6] [µM],TGI [7] [µM],TGI [8] [µM],TGI [9] [µM],TGI [10] [µM],GI50 [1] [µM],GI50 [2] [µM],GI50 [3] [µM],GI50 [4] [µM],GI50 [5] [µM],GI50 [6] [µM],GI50 [7] [µM],GI50 [8] [µM],GI50 [9] [µM],GI50 [10] [µM]
CC[C@]1(O)C(=O)OCc2c1cc1n(c2=O)Cc2cc3c(N)cccc3nc2-1,> 100,> 100,> 100,> 100,> 100,> 100,> 100,> 100,> 100,> 100,,,,,,,,,,
Cc1cccc(-n2c(=S)[nH]c3c(sc(=O)n3-c3ccccc3C)c2=O)c1,> 100,> 100,> 100,> 100,> 100,> 100,> 100,> 100,> 100,> 100,,,,,,,,,,
Cc1cc(C)c(C(=O)c2no[n+]([O-])c2C(=O)c2c(C)cc(C)c(Br)c2C)c(C)c1Br,39.1,34.9,31.4,24.4,20.3,,31.6,50,52.3,23.7,,,,,,,,,,
NC(=S)NNc1c([N+](=O)[O-])cnn(-c2ccccc2)c1=O,49.9,32.7,26.7,,34.8,15.9,35,31.8,36,24.4,,,,,,,,,,
CCCCN(CCCC)c1c([N+](=O)[O-])c(=O)nc2ccccn12,> 100,> 100,> 100,94.1,> 100,> 100,> 100,,> 100,> 100,,,,,,,,,,
COC(=O)c1nc(Cl)nc(Cl)c1Cl,> 100,27.7,36,,42.9,31.9,64.4,41,> 100,,,,,,,,,,,
Cc1sc2nc3c4ccccc4c(NCCCN(C)C)nn3c(=O)c2c1C,20.4,20.4,2.79,35.8,20,3.9,23.1,24.9,26.3,,2.52,6.95,1.43,15.7,5.57,1.93,5.26,12.1,13.4,
CCN(CC)C(=S)SC,> 100,> 100,> 100,> 100,> 100,> 100,> 100,,> 100,> 100,,,,,,,,,,
COc1cc(C(=O)Nc2cc3c(cc2Oc2cc(C)cc(C)c2)C(=O)N(C)[C@@H](CC(=O)N(C)O)C(=O)N3)c(Br)c(OC)c1OC,0.00742,0.374,,0.0201,< 0.00333,0.00872,0.0128,< 0.00333,0.00955,< 0.00333,< 0.00333,0.0111,,< 0.00333,< 0.00333,< 0.00333,< 0.00333,< 0.00333,< 0.00333,< 0.00333
CN(C)/N=C(/c1nc2ccc(Cl)cc2[nH]c1=O)C(O)c1ccc(C(O)/C(=N\N(C)C)c2nc3ccc(Cl)cc3[nH]c2=O)cc1 (configuration not stated),> 100,> 100,> 100,> 100,> 100,> 100,,> 100,> 100,> 100,,,,,,,,,,
CC1=C(C(=O)Nc2cccc(Cl)c2)C(c2ccccc2F)C(C(=O)Nc2cccc(Cl)c2)=C(C)N1,40.6,46,26.3,27.5,8.7,24.6,26,21.3,55.5,,,,,,,,,,,
OC1(c2ccccc2)OC(C#Cc2ccccc2)(c2ccccc2)c2ccccc21 (configuration not stated),14.8,,5.38,11.9,13.2,> 100,7.98,5.85,5.04,3.84,,,,,,,,,,
C/C(=N\N(c1ccccc1)c1ccccc1)c1c(O)cc(C)oc1=O,> 100,> 100,,> 100,> 100,> 100,> 100,> 100,> 100,> 100,,,,,,,,,,
CN1CC[C@]2(C)c3ccc(O)cc3CC3CCCC1C32C (some centres not stated),> 100,> 100,> 100,> 100,> 100,> 100,> 100,,> 100,> 100,,,,,,,,,,
C[C@]12CCCC(=O)C1(O)C[C@H](C(=O)O)CC2 (some centres not stated),> 100,> 100,> 100,,> 100,> 100,> 100,> 100,> 100,> 100,,,,,,,,,,
COc1ccc(-c2ccc(-c3ccc(C(=N)N)cn3)o2)cc1,18.7,19.6,3.68,,6.4,13.5,29.5,22.1,21.8,22.9,5.1,6.56,1.82,,1.31,3.97,12.8,10.4,10.2,10.3
CN(C)CC1CCC/C1=N\O (configuration not stated),,> 100,> 100,,> 100,> 100,> 100,> 100,> 100,> 100,,,,,,,,,,
COC(=O)c1ccccc1NC(=O)C(=O)NNC(=O)c1ccncc1,> 100,> 100,> 100,> 100,> 100,,> 100,> 100,> 100,> 100,,,,,,,,,,
N.N.N.N.O=C([O-])C(Cl)Cl.O=C([O-])C(Cl)Cl.[Co+3].[O-][Cl+3]([O-])([O-])[O-],> 100,> 100,> 100,> 100,> 100,> 100,,> 100,> 100,> 100,> 100,> 100,> 100,> 100,> 100,> 100,,> 100,> 100,> 100
